Biological target: T1, Epac1-camps-His6 (Homo sapiens, UniProt O95398)
T1 construct: made in house; host or cells: E. coli BL21(DE3)-CodonPlus-RIL / BL21(DE3)-pLysS, pET11a
T1 sequence (O95398 199-357 limits assumed): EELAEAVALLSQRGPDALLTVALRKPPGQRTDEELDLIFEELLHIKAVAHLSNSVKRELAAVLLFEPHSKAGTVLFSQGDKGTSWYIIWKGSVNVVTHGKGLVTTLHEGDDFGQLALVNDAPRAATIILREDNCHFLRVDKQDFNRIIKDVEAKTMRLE
Assay: cell-free FRET assay with purified Epac1-camps-His6 in 96 multi-well plates (EYFP/ECFP ratio R/R0)
Type: biochemical
Settings: 96 MWP, plate reader
Procedure: To assess the functionality of the purified Epac1-camps-His6 protein, the protein was diluted to 0.7 μM and 90 μl of this solution was added to each well of a 96 multi well plate (MWP). Fluorescence emission in each well was measured in a plate reader. Excitation was at 430 nm and emission was recorded at 475 nm (ECFP) and 530 nm (EYFP). […] The final volume in each well was 100 μl, and final concentrations of cyclic nucleotides ranged from 10^− 9 - 10^− 4 M. Incubation of the sensor protein with its ligands was for 30 min. at room temperature. […] Normalized data were plotted against cyclic nucleotide concentrations and EC50 values were calculated. […] Mean values with standard deviations were obtained from four-fold determinations for each cyclic nucleotide.
Purified Epac1-camps-His6 protein was diluted to a concentration of 0.7 μM in IS buffer and 90 μl of the sample was added to each well of a 96 multi well plate. Excitation was at 430 nm and emission was recorded at 475 nm (ECFP) and 530 nm (EYFP). […] The final volume was 100 μl and final concentrations of cyclic nucleotides ranged from 10^− 9 - 10^− 4 M. The EYFP/ECFP ratio (R) for each well was calculated and normalized to the ratio of the basal fluorescence in the absence of cyclic nucleotides (R0). […] EC50 values were calculated with a four-parameter nonlinear regression using GraphPad Prism v5.04 […]

EC50: 7.8 µM
Structure (SMILES): Nc1nc2c(ncn2[C@@H]2O[C@@H]3COP(=O)(O)O[C@H]3[C@H]2O)c(=O)[nH]1 [cGMP, cyclic guanosine 3′,5′-monophosphate]

— PMC7450941, “Establishing a sensitive fluorescence-based quantification method for cyclic nucleotides” (BMC Biotechnology, 2020)
